Test system: Rattus norvegicus
Experiment: Anti-hypertensive activity in fructose fed-induced hypertensive rat assessed as increase in ionized calcium level in serum at 20 mg/kg administered once daily for 28 days
Assay type: functional
Settings: time 28 day

C=C1/C(=C\C=C2/CCC[C@]3(C)[C@@H]([C@H](C)CCCC(C)(C)O)CC[C@@H]23)C[C@@H](O)C[C@@H]1O [CALCITRIOL]
Activity: 1.44 mM
